“Also recorded” adds a separate entry of the source. Like-named read-outs stand apart in the source and are kept apart here. Each block holds one compound with its values, some of them ahead of it.
Legend:
[1] = test system: D423 (ENO1-deleted) glioma cells; experiment: Cell proliferation assay (crystal violet) in ENO1-deleted glioma cells; format: cell-based; settings: for IC50: Glioma cell; for selectivity for ENO1-deleted cells: versus ENO1-rescued (D423 ENO1) and ENO1-intact (LN319) glioma cells
Method: Cell culture experiments. Cell culture experiments were conducted using the D423-MG cell line. 1p36 homozygous deletion in D423 includes the genes from CAMTAJ to SLC25A33; this includes ENO1. Isogenic ENO1 ectopically rescued lines were described previously (pCMV ENO1 5X) (Muller et al., 2012, which is incorporated by reference herein). An ENO1-intact cell line (LN319) was used as a control for sensitivity to Enolase inhibitors. Cells were routinely cultured in Dulbecco's modified Eagle's medium supplemented with 10% fetal bovine serum.
Cell proliferation assay. Cell Proliferation was determined by crystal violet staining, as previously described (Leonard et al., 2016 and Satani et al., 2016). The cell lines used were D423 (ENO1-deleted), D423 ENO1 (overexpressing ENO1) and LN319 (control). Glioma cells were seeded in 96-well plates and treated with varying concentrations of the inhibitors described above for 7 days. Cells were then washed with PBS, fixed with 10% formalin and stained with 0.05% crystal violet. Washed and dried plates were dye-extracted using 10% acetic acid, and absorbance was measured at 595 nm using Omegastar Plate Reader (BMG Labtech). To test the efficacy of the synthesized under hypoxic conditions, 1×10^4 cells were plated in 96-well plates, treated with VCY13, VCY15, VCY16, or VCY17 and incubated for 3 days in a hypoxia station (Don Whitley Scientific, Shipley, UK) set at 1% O2 and 5% CO2. Crystal violet staining was then performed as described above.
Additional Biological Data. Pro-drug inhibitor structures and corresponding IC50 values against ENO1-deleted cells are shown below in Table 2. The name and corresponding structures of all synthesized inhibitors are given in left and middle columns of each table. Pro-drug moieties in blue represent a second pro-drug leave group while those in red represent a first pro-drug leave group. Some inhibitors also contain an acetyl-protected hydroxamate, which is also a biologically labile moiety. ENO1-deleted (D423), ENO1-isogenically rescued (D423 ENO1), and ENO1-WT (LN319) cells were treated with either pro-drug inhibitor for 5 days at 21% O2, unless otherwise specified. […] IC50,D423 values at 21% O2 are given in the right columns of each table. Experiments conducted at 1% O2 (hypoxic) or 70% O2 (hyperoxic) conditions are noted, where appropriate.

[2] = nitroimidazole in VCY17, nitrofuran in VCY15; cited from earlier work
[3] = test system: U343 glioma cell line (ENO1-heterozygously deleted); experiment: Enolase inhibitor sensitivity (crystal violet), ENO1-heterozygously deleted U343 cells; format: cell-based; settings: DMEM 10% FBS, terminal cell density by crystal violet after 7 days
Method: (§1) Enolase inhibitor sensitivity experiments were performed, using DMEM containing 10% FBS cell culture media. IC50 (expressed in nM) were calculated based on terminal cell density measured by crystal violet after 7 days of growth. […] Left table: POMHEX. Middle table: HEX. Right table: Ratio of sensitivity to POMHEX versus HEX for each cell line.
(§2) (FIG. 19A) ENO1-deleted (D423, red), ENO1-isogenically rescued (D423 ENO1, blue), and ENO1-WT (LN319, grey) cells were treated POMHEX in RPMI media under the same experimental conditions used for NCI-60 screening. […] IC50 (expressed in nM) were calculated based on terminal cell density measured by crystal violet.
(§3) Cell proliferation assay.

[4] = test system: D502 glioma cell line (ENO1-heterozygously deleted); experiment: Enolase inhibitor sensitivity (crystal violet), ENO1-heterozygously deleted D502 cells; format: cell-based; settings: DMEM 10% FBS, terminal cell density by crystal violet after 7 days
Method: as §1, §2, §3

[5] = Plasma levels after IV injection of POMHEX in monkeys; format: in vivo, monkey; settings: after IV POMHEX, monkey 2.5 mg/kg, mouse 10 mg/kg
Method: (§4) FIGS. 16A-16C show the ex-vivo half-life of POMHEX in biological fluids limits its clinical utility. […] Lower levels of carboxylesterase in human blood results in a longer half-life of POMHEX. (FIG. 16B) Dramatically higher drug exposure in non-human primates as compared to mice following IV injections of POMHEX. Mice (n=3; pooled) and monkeys (n=3; pooled) were injected IV with POMHEX at 10 mg/kg and 2.5 mg/kg, respectively. […] POMHEX was undetectable (<50 nM) even at the earliest time point, in both monkey and mouse experiments; at 98 nM, POMHEX was detectable 1-minute post-injection, but at no time thereafter. […] HEX and HemiPOMHEX were not measured at concentrations higher than 10 mg/kg due to the hazards associated with the derivatization agent, trimethylsilyl-diazomethane in hexane (TMS-DAM). (FIG. 16C) Schematic of POMHEX in circulation when administered IP or IV in mice. Due to high levels of plasma carboxylesterase, a gradient decrease in POMHEX away from the site of injection is accompanied by a concurrent increase in HemiPOMHEX.

[6] = Plasma and organ levels after injection of POMHEX in mice; format: in vivo, mouse; settings: 24 hrs. after a single intravenous injection of 10 mg/kg POMHEX
Method: FIGS. 3A-3D show the ex-vivo half-life of POMHEX in biological fluids may limit its clinical utility. (FIG. 3A) Ex-vivo half-life of POMHEX in biological fluids. POMHEX has a half-life of ~30 seconds in mouse plasma. The degradation may be prevented by heat inactivation or de-proteinatization with acetonitrile. […] (FIG. 3B) Plasma concentration of HEX and HemiPOMHEX following a single intravenous injection of POMHEX, as a function of time. Mice were injected IV with 10 mg/kg POMHEX and sacrificed at the indicated time points. Each data point represents a single animal. Note, POMHEX itself was below the detection limit (100 nM) even at the earliest time point. It is believed that this may not be reflective of the physiological state as separation of plasma from hematocrit is required for the measurements, which adds approximately 6 minutes of processing time during which POMHEX may be degraded to HemiPOMHEX. (FIG. 3C) The results of the same experiment but performed with an intraperitoneal injection of POMHEX, at a dose of 40 mg/kg. (FIG. 3D) Quantification of POMHEX and its metabolites in mouse organs 24 hrs. after a single intravenous injection of 10 mg/kg POMHEX.
as §4, with “Due to high levels of plasma carboxylesterase, a gradient decrease in POMHEX away from the site of injection is accompanied by a concurrent increase in HemiPOMHEX.” left out

[7] = 120 h, ENO1-deleted (D423) cells, 5 days, 21% O2, read-out: IC50,D423
[8] = D423 cells, 1% O2 (hypoxic), read-out: IC50,D423 at 1% O2
[9] = 120 h, 21% O2, 5 days where stated, read-out: IC50 against D423 (ENO1-deleted) cells

- IC50 [1, 7]: 234 nM
- IC50 [1, 8]: 40 nM
Structure (SMILES): CC(=O)ON1CCCC(P(=O)(NCc2ccccc2)OCc2ccc([N+](=O)[O-])s2)C1=O (stereo not shown) [VCY16, 3-((benzylamino)((5-nitrothiophen-2-yl)methoxy)phosphoryl)-2-oxopiperidin-1-yl acetate]

Structure (SMILES): CC(C)(C)C(=O)OCOP(=O)(NCc1ccccn1)C1CCCN(O)C1=O (stereo not shown) [KY9, (((1-hydroxy-2-oxopiperidin-3-yl)((pyridin-2-ylmethyl)amino)phosphoryl)oxy)methyl pivalate]
- IC50 [1, 7]: 96 nM

- IC50 [1, 9]: 230 nM
- IC50 [1, 7]: 390 nM
- IC50 [1, 8]: 97 nM
Structure (SMILES): CC(=O)ON1CCCC(P(=O)(NCc2ccccc2)OCc2ccc([N+](=O)[O-])o2)C1=O (stereo not shown) [VCY15, 3-((benzylamino)((S-nitrofuran-2-yl)methoxy)phosphoryl)-2-oxopiperidin-1-yl acetate]
- redox potential of the nitroheterocycle [2]: −330 mV
- difference in bioactivation from 21% to 1% O2 ([1]; taking into account HIF-1α/hypoxia-driven increase in ENO2 expression): ~ 5 fold
- selectivity for ENO1-deleted cells [1]: selective toxicity against ENO1-deleted

Structure (SMILES): CC(C)(C)C(=O)OCOP(=O)(NCC1CC1)C1CCCN(O)C1=O (stereo not shown) [VCY32, ((((Cyclopropylmethyl)amino)(1-hydroxy-2-oxopiperidin-3-yl)phosphoryl)oxy)methyl pivalate]
- IC50 [1, 7]: 9 nM
- selectivity for ENO1-deleted cells [1]: selective for ENO1-deleted cells

Structure (SMILES): CC(C)(C)C(=O)OCOP(=O)(NCc1cccc(F)c1)C1CCCN(O)C1=O (stereo not shown) [CDP12, ((((3-fluorobenzyl)amino)(1-hydroxy-2-oxopiperidin-3-yl)phosphoryl)oxy)methyl pivalate]
- IC50 [1, 7]: 249 nM

Structure (SMILES): CC(C)(C)C(=O)OCOP(=O)(NCc1c(F)cccc1F)C1CCCN(O)C1=O (stereo not shown) [CDP19, ((((2,6-difluorobenzyl)amino)(1-hydroxy-2-oxopiperidin-3-yl)phosphoryl)oxy)methyl pivalate]
- IC50 [1, 7]: 112 nM

Structure (SMILES): CC(C)(C)C(=O)OCOP(=O)(NCC1CCCCC1)C1CCCN(O)C1=O (stereo not shown) [CDP18, ((((Cyclohexylmethyl)amino)(1-hydroxy-2-oxopiperidin-3-yl)phosphoryl)oxy)methyl pivalate]
- greater potency compared to benzylamine pro-drug (FLM37) ([1]; D423 cells): ~ 3 fold
- IC50 [1, 9]: 77 nM
- IC50 [1, 7]: 77 nM

- IC50 [1, 7]: 36000 nM
Structure (SMILES): O=C1C(P(=O)(NCc2ccccc2)OCOC(=O)N2CCC(N3CCCCC3)CC2)CCCN1O (stereo not shown) [CDP9]

Structure (SMILES): CC(C)(C)C(=O)OCOP(=O)(NCc1ccc(F)c(F)c1)C1CCCN(O)C1=O (stereo not shown) [CDP13, ((((3,4-difluorobenzyl)amino)(1-hydroxy-2-oxopiperidin-3-yl)phosphoryl)oxy)methyl pivalate]
- IC50 [1, 7]: 221 nM

Structure (SMILES): O=C1C(P(=O)(O)O)CCCN1O (stereo not shown) [HEX]
- IC50 [3]: 19700 nM
- IC50 [4]: 28800 nM
- half-life in monkey compared to mouse [5]: longer in monkey

Structure (SMILES): CC(C)(C)C(=O)OCOP(=O)(O)C1CCCN(O)C1=O (stereo not shown) [HemiPOMHEX]
- half-life in monkey compared to mouse [5]: longer in monkey
- level in mouse organs [6]: below the quantification limit (BQL)

- IC50 [1, 9]: 38 nM
- IC50 [1, 7]: 38 nM
Structure (SMILES): CC(=O)ON1CCCC(P(=O)(NCc2ccccc2)OCCSC(=O)C(C)(C)C)C1=O (stereo not shown) [VCY13, 3-((benzylamino)(2-(pivaloylthio)ethoxy)phosphoryl)-2-oxopiperidin-1-yl acetate]
- selectivity for ENO1-deleted cells [1]: selective toxicity against ENO1-deleted; also recorded: dose-dependent selectivity for ENO1-deleted cells

Structure (SMILES): CC(C)(C)C(=O)OCOP(=O)(NCc1ccc(F)cc1F)C1CCCN(O)C1=O (stereo not shown) [CDP14, ((((2,4-difluorobenzyl)amino)(1-hydroxy-2-oxopiperidin-3-yl)phosphoryl)oxy)methyl pivalate]
- IC50 [1, 7]: 65 nM

- IC50 [1, 7]: 933 nM
- IC50 [1, 8]: 540 nM
Structure (SMILES): CC(=O)ON1CCCC(P(=O)(NCc2ccc(F)cc2)OCc2ccc([N+](=O)[O-])o2)C1=O (stereo not shown) [VCY22, 3-(((4-fluorobenzyl)amino)((5-nitrofuran-2-yl)methoxy)phosphoryl)-2-oxopiperidin-1-yl acetate]

- IC50 [1, 7]: 5000 nM
Structure (SMILES): N#CCCOP(=O)(NCc1ccccc1)C1CCCN(O)C1=O (stereo not shown) [VCY26]

Structure (SMILES): CC(C)(C)C(=O)OCOP(=O)(NCc1ccc(F)cc1)C1CCCN(O)C1=O (stereo not shown) [VCY19, ((((4-fluorobenzyl)amino)(1-hydroxy-2-oxopiperidin-3-yl)phosphoryl)oxy)methyl pivalate]
- IC50 [1, 7]: 129 nM

— US12679855B2, “Inhibitors of the enzyme enolase for precision oncology” (Board of Regents, The University of Texas System, priority 2019, dated 2026)
